Data as given in patent US20150141523A1, “COMPOUNDS FOR USE IN THE TREATMENT OF AUTOIMMUNE INFLAMMATORY DISEASE” (Venantius Limited, priority 2012, published 2015).

What was measured:
Balb/C mice = assay: Oxazolone contact hypersensitivity (CHS) mouse ear swelling; assay type: in vivo; settings: P>0.05
Procedure: Female Balb/C mice (30-40 gms) were sensitised on day 0 with 20 μl of 2% oxazolone in acetone on each ear (10 μl on the inner and outer aspects of both ears). All mice were challenged on day 5 with 20 μl of 2% oxazolone in acetone only on the right ear; again, 10 μl on both the inner and outer aspects of the ear. Immediately following this, the mice were treated with test compound. The test compound was administered in exactly the same way as the oxazolone, with 10 μl on each side of the right ear. […] For the […] group, acetone was administered. All animals were killed 24 hrs later and the percentage increase in ear swelling was calculated. This was done in two ways. The thickness of the unchallenged left ear and the challenged right ear were measured using a micrometer caliper (μm). The increase in weight of both ears was also measured using a 5 mm biopsy punch (mgs). The percentage increase in oedema was then calculated for both weight and thickness by expressing the difference between the unchallenged left ear and the challenged right ear as a percentage of the left ear control.

[1] = test system: IL-2 secretion from Jurkat T cells; assay: IL-2 secretion from activated Jurkat T cells (ELISA); assay type: cell-based, human; settings: for IL-2 [ ]pg/ml (1) / IL-2 % Control (1): experiment (1); for IL-2 % Control (1) / IL-2 % Control (2) / IL-2 % Control (3): relative to DMSO 0.1%; for IL-2 [ ]pg/ml (2) / IL-2 % Control (2): experiment (2); for IL-2 [ ]pg/ml (3) / IL-2 % Control (3): experiment (3)
Procedure: The T cell line Jurkat 6.1 (ATCC) was used. Cells were pre-treated for 30 min with 1 μM or 10 μM of the respective compound and then stimulated with plate-bound anti-CD3 (BD Pharmingen) and anti-CD28 (AnCell). DMSO was used as vehicle control. The immunosuppressive agent Cyclosporine A was used as a control for inhibition of IL-2 production. After 24 hs the supernatant was collected and IL-2 secretion was measured by ELISA.
Jurkat T cells were cultured in RMPI-1640 medium containing 10 % Foetal Bovine Serum, Penicillin/Streptomycin and L-Glutamine in T-75cm2 flasks at 37° C. and 5 % CO2. Cells were seeded into new culture flasks at a density of 1-3×10^5 cells per ml and maintained at a density of 0.5−1×10^6 cells per ml.
(§1) (A) Anti-TCR/CD28-mediated activation of Jurkat cells: Experiments involving anti-TCR/CD28-mediated activation of Jurkat T lymphocytes were carried out on 24-well cell culture plates. The plates were coated with a 1/100 dilution of rabbit anti-mouse IgG in sterile PBS (1×) and incubated overnight at 4OC. Unbound antibody was aspirated and the wells were gently rinsed with warm sterile PBS. The PBS was aspirated and the wells were coated with a 1/100 dilution of anti-TCR antibody (OKT-3) and a 1/200 dilution of anti-CD28 antibody (both antibodies pre-mixed prior to addition to the plates) in sterile PBS. The plates were then incubated for 1-2 hours at 37° C. Unbound antibody was aspirated and the wells were gently rinsed with warm PBS. The PBS was left on the plate until the Jurkat cells were ready to be added to the plate. The Jurkat cells were harvested from the T-75cm2 cell culture flasks and resuspended at a density of 0.5×10^6 cells per ml. The compounds were dissolved at a specified stock concentration (see results section) and diluted to the required concentration by adding the drug to the cell suspension. The cells were then pre-incubated with the compounds or with an equivalent volume of drug vehicle control (DMSO) for 30 minutes prior to adding the cell suspension to the antibody-coated plates. Cyclosporine A (1 μM) was used as a positive control to inhibit IL-2 production from activated T cells and was preincubated with the 6 cells as described above in parallel. The cells were then incubated on the plates with the acti-TCR/CD28 antibodies for 24 hours at 37° C. and 5% CO2 in a humidified atmosphere. After 24 hours, the cell suspension was removed from the plates and the cells were pelleted by centrifugation. The cell culture supernatant was saved and analysed for secreted IL-2 by ELISA. The cell pellet was saved and cell viability was measured using Acridine Orange/Ethidium Bromide cell viability staining solution.
(B) PHA/PMA-mediated activation of Jurkat cells Jurkat cells were resuspended at a concentration of 0.5×10^6 cells per ml and the Pharmatrin compounds at the desired concentration or an equivalent volume of drug vehicle control (DMSO) were added to the cells and incubated for 30 minutes. Cyclosporine A (1 ∝M) was used as a positive control to inhibit IL-2 production from activated T cells and was preincubated with the cells as described above in parallel. PHA and PMA were added to the cell suspension (10 ∝g/ml and 10 ng/ml respectively) and the cells were plated onto uncoated 24-well plates. The cells were incubated on the plates for 24 hours at 37° C. and 5 % CO2 in a humidified atmosphere. After 24 hours, the cell suspension was removed from the plates and the cells were pelleted by centrifugation. The cell culture supernatant was saved and analysed for secreted IL-2 by ELISA.
The cell culture supernatants were analysed for IL-2 by ELISA (96-well plate format) using the Human IL-2 ELISA kit from R&D Systems Europe. This assay was carried out using the standard protocol outlined by the company. Samples and standards (recombinant human IL-2 provided by R&D Systems) were analysed in triplicate. […]

Jurkat cells = assay: Jurkat cell viability (Acridine Orange/Ethidium Bromide); assay type: cell-based
Procedure: as §1
The cell pellet was resuspended in 20 μl of Acridine Orange/Ethidium Bromide staining solution. A portion of this cell suspension was placed on a haemocytometer and analysed under a fluorescence microscope. […] The ratio of viable cells: non-viable cells were calculated for each activation time point/drug treatment.

CD-1 mice = assay: Sheep red blood cell (SRBC) delayed-type hypersensitivity mouse paw swelling; assay type: in vivo; settings: 30 mg/kg; vehicle 89%
Procedure: The sheep red blood cells were first cleaned and counted as follows. 5 mls of the SRBC were spun down in a centrifuge at 3000 rpm for 10 minutes. The supernatant was removed and phosphate buffered saline (PBS), pH 7.4 added to the pellet. The pellet was mixed with the PBS buffer (5 mls) and spun down in a centrifuge at 3000 rpm for 10 minutes. The pellet was washed twice more with PBS buffer as described above. The pellet was then reconstituted in 5 mls of PBS buffer following the final wash. 10 μl of a 1 in 200 dilution of the sample of reconstituted sheep red blood cells (in trypan blue stain) was used to fill the counting chamber of a haemacytometer and the number of sheep red blood cells counted.
Male CD-1 mice (30-40 gms) were sensitised on day zero. The negative control group was sensitised with 100 μl PBS intraperitoneally (i.p.), while the positive control group and drug treated groups were sensitised with 1×10^7 SRBC (100 μl i.p.).
Animals were challenged 5 days later with SRBC. The SRBC were cleaned and counted as described above. Animals anaesthetised with halothane were challenged s.c. by injecting SRBC (3×10^8 cells in 20 μl) into the right hind paws and PBS (20 μl) into the left hind paws. […]
The difference in paw swelling between the saline-injected and SRBC-challenged contralateral paw of each mouse was calculated by measuring paw volume (mls) using a plethysmometer. […]

Structure (SMILES) | effect on oxazolone mouse ear swelling (Balb/C mice) | IL2 release from Jurkat cells [1] | IL-2 [ ]pg/ml (1) ([1]; 0.3 uM) [pg/mL] | IL-2 % Control (1) ([1]; 0.3 uM) [%] | IL-2 [ ]pg/ml (2) ([1]; 0.3 uM) [pg/mL] | IL-2 % Control (2) ([1]; 0.3 uM) [%] | IL-2 [ ]pg/ml (3) ([1]; 0.3 uM) [pg/mL] | IL-2 % Control (3) ([1]; 0.3 uM) [%] | IL-2 [ ]pg/ml (1) ([1]; 1 uM) [pg/mL] | IL-2 % Control (1) ([1]; 1 uM) [%] | IL-2 [ ]pg/ml (2) ([1]; 1 uM) [pg/mL] | IL-2 % Control (2) ([1]; 1 uM) [%] | IL-2 [ ]pg/ml (3) ([1]; 1 uM) [pg/mL] | IL-2 % Control (3) ([1]; 1 uM) [%] | IL-2 [ ]pg/ml (1) ([1]; 3 uM) [pg/mL] | IL-2 % Control (1) ([1]; 3 uM) [%] | IL-2 [ ]pg/ml (2) ([1]; 3 uM) [pg/mL] | IL-2 % Control (2) ([1]; 3 uM) [%] | IL-2 [ ]pg/ml (3) ([1]; 3 uM) [pg/mL] | IL-2 % Control (3) ([1]; 3 uM) [%] | other results
O[C@@H]1c2ccccc2C[C@]1(Cc1ccccc1)C1=Cc2ccccc2C1 (mixture of isomers) [Compound 5, (R,S and SR)2-Benzyl-2,3-dihydro-1H,1′H-2,2′-biinden-1-ol] | no significant effect | inhibited IL2 release | 32.00 | 156.86 | 87.25 | 133.61 | 164.41 | 124.97 | 21.85 | 107.11 | 64.65 | 99.00 | 127.84 | 97.18 | 10.90 | 53.43 | 83.25 | 60.20 | 97.38 | 74.02 | IL-2 [ ]pg/ml (1) ([1]; 10 uM): 8.75 pg/mL; IL-2 % Control (1) ([1]; 10 uM): 42.89%; IL-2 [ ]pg/ml (2) ([1]; 10 uM): 63.80 pg/mL; IL-2 % Control (2) ([1]; 10 uM): 97.70%; IL-2 [ ]pg/ml (3) ([1]; 10 uM): 70.72 pg/mL; IL-2 % Control (3) ([1]; 10 uM): 53.76%; IL-2 [ ]pg/ml (1) ([1]; 30 uM): 16.25 pg/mL; IL-2 % Control (1) ([1]; 30 uM): 79.66%; IL-2 [ ]pg/ml (2) ([1]; 30 uM): 5.75 pg/mL; IL-2 % Control (2) ([1]; 30 uM): 8.81%; IL-2 [ ]pg/ml (3) ([1]; 30 uM): 6.69 pg/mL; IL-2 % Control (3) ([1]; 30 uM): 5.08%; IL-2 [ ]pg/ml (1) ([1]; 100 uM): -10.40 pg/mL; IL-2 % Control (1) ([1]; 100 uM): −50.98%; IL-2 [ ]pg/ml (2) ([1]; 100 uM): -13.05 pg/mL; IL-2 % Control (2) ([1]; 100 uM): −19.98%; IL-2 [ ]pg/ml (3) ([1]; 100 uM): 0.28 pg/mL; IL-2 % Control (3) ([1]; 100 uM): 0.21%; cell viability (Jurkat cells): without affecting cell viability; SRBC paw swelling (CD-1 mice): 60%
O[C@H]1c2ccccc2C[C@]1(Cc1ccccc1)C1=Cc2ccccc2C1 (mixture of isomers) [Compound 6, (S,S and RR)2-Benzyl-2,3-dihydro-1H,1′H-2,2′-biinden-1-ol] | no significant effect | inhibited IL2 release | 63.72 | 87.26 | 74.50 | 114.09 | 101.75 | 77.34 | 58.72 | 80.41 | 51.60 | 79.02 | 112.44 | 85.47 | 47.83 | 65.50 | 29.15 | 44.64 | 104.44 | 79.39 | IL-2 [ ]pg/ml (1) ([1]; 10 uM): 27.72 pg/mL; IL-2 % Control (1) ([1]; 10 uM): 37.96%; IL-2 [ ]pg/ml (2) ([1]; 10 uM): 36.15 pg/mL; IL-2 % Control (2) ([1]; 10 uM): 55.36%; IL-2 [ ]pg/ml (3) ([1]; 10 uM): 75.19 pg/mL; IL-2 % Control (3) ([1]; 10 uM): 57.15%; IL-2 [ ]pg/ml (1) ([1]; 30 uM): 4.72 pg/mL; IL-2 % Control (1) ([1]; 30 uM): 6.47%; IL-2 [ ]pg/ml (2) ([1]; 30 uM): 47.60 pg/mL; IL-2 % Control (2) ([1]; 30 uM): 72.89%; IL-2 [ ]pg/ml (3) ([1]; 30 uM): 16.47 pg/mL; IL-2 % Control (3) ([1]; 30 uM): 12.52%; IL-2 [ ]pg/ml (1) ([1]; 100 uM): -10.11 pg/mL; IL-2 % Control (1) ([1]; 100 uM): −13.85%; IL-2 [ ]pg/ml (2) ([1]; 100 uM): -19.75 pg/mL; IL-2 % Control (2) ([1]; 100 uM): −30.25%; IL-2 [ ]pg/ml (3) ([1]; 100 uM): 1.97 pg/mL; IL-2 % Control (3) ([1]; 100 uM): 1.50%; cell viability (Jurkat cells): without affecting cell viability; SRBC paw swelling (CD-1 mice): 52%
